Measurements reported in US20040224995A1 (University of North Texas Health Science Center at Fort …, priority 2003, published 2004).

Experiments:
PPARγ = conditions: Kliewer et al., 1995; cited from earlier work
RGC-5 cells = assay: RGC-5 cell viability during BSO exposure; assay type: cell-based
Method: The in vitro model used for oxidative cell death was based upon glutamate, hydrogen peroxide, and buthionine sulfoximine (“BSO”) administration to HT-22 mouse hippocampal, C6 rat glioma, and RGC-5 retinal ganglion cell lines. The ease that the above cell lines are cultured is well known in the art of cell culture. Additionally, these cell lines are suitable for screening a various number of compounds described in the present invention.
Although not wanting to be bound by theory, the toxicity of glutamate in HT-22 (32) and C6 glioma (33) cell lines is mediated through oxidative stress. HT-22 cells lack ionotropic N-methyl-D-aspartate (“NMDA”) glutamate receptors, and the glutamate-induced cell death appears to occur via a slow onset oxidative stress (32,34,35). Glutamate blocks cystine uptake by inhibiting the glutamate/cystine antiporter in both HT-22 (32) and C6 glioma (33) cell lines. […] In some of the experiments, the viability of cells was determined using 2.5 μM calcein AM assay in phosphate-buffered saline (PBS 1×). After 25 minutes of incubation, live cells were distinguished by the presence of intracellular esterase activity, which cleaves the calcein AM dye, producing a bright green fluorescence, as shown in FIG. 22. Viability was measured in Relative Fluorescent Units (“RFU”), and expressed as percentage of vehicle-treated control values. […]

[1] = Middle cerebral artery occlusion (MCAO) in ovariectomized female rats; assay type: in vivo, rat; conditions: rats, doses given prior to MCA occlusion
Source text: (§1) Evaluating the role of cyclopentenone PGs and TZD's has also been completed in vivo. […] Troglitazone reduced the resulting infarct size by about 50% compared to vehicle (corn oil treated animals). This effective protection from a transient focal ischemic event by troglitazone argues that selective PPARγ agonists may be useful neuroprotectants during neurodegenerative events (e.g. stroke).
(§2) As shown below, the results from our experiments comprise results that indicate potent neuroprotective TZD's, as were used in neuronal cell lines are also effective in an animal model. Although not wanting to be bound by theory, the rat is the appropriate animal model for assessing the effects of drugs on neuronal damage, as the compounds to be evaluated are intended for use in humans. […] Female Sprague Dawley rats were purchased from Harlan in Indianapolis, Ind. Rats were housed in pairs in hanging, stainless steel cages in a temperature-controlled rooms (25±1° C.) with a daily light cycle (on from 0700 to 1900 h daily). All rats were allowed free access to laboratory chow and tap water. All procedures performed on animals will were reviewed and approved by the University of North Texas Health Science Center Institutional Animal Care and Use Committee (“ACUC”).
(§3) The female Sprague Dawley rats (225-250 g BW) were bilaterally ovariectomized using a dorsal approach. Animals were anesthetized with ketamine ([…]) and xylazine (10 mg/kg). A small (1 cm) cut was made through the skin, fascia, and muscle. […] Percent ischemic lesion area was calculated. * indicates p<0.05 vs. respective control group. […]
(§4) Each group of animals was decapitated 24 h after MCAO. […] Slices were then fixed in a 10% formalin and photographed by a digital camera (Sony MVC-FD5), and the ischemic lesion area were determined for each slice using the Image-Pro Plus software (Media Cybernectics, Silver Spring, Md.). Percent ischemic lesion area was calculated as the sum of the ischemic lesion area for the five slices divided by the total cross sectional area of these five slices.

[2] = tested on: ischemic lesion after MCAO; assay: as above; assay type: in vivo, rat
Source text: as §1, §2, §3, §4

| Compound | EC50 (PPARγ) [µM] | protection against BSO (RGC-5 cells) | brain concentrations [1] | reduction of infarct size compared to vehicle ([2]; rats treated prior to MCA occlusion, vehicle corn oil) | reduction of ischemic lesion area compared to control animals ([2]; s.c. injection 12 h and 2 h before MCAO, 60 min occlusion, 24 h reperfusion) |
| --- | --- | --- | --- | --- | --- |
| CCCCC/C=C/C=C1/C(=O)C=C[C@@H]1C/C=C\CCCC(=O)O [15d-PGJ2, 15-deoxy-Δ^12,14-PGJ2] | 7 | – | – | – | – |
| Cc1c(C)c2c(c(C)c1O)CCC(C)(COc1ccc(CC3SC(=O)NC3=O)cc1)O2 (centres unmarked) [troglitazone] | – | protected | about 7 μM | about 50% | about 50% |
